Measured values: US20070167462A1, “Fungicidal mixtures” (priority 2004, published 2007)

System: Corticium sasakii
Assay: Activity against sheath blight on rice caused by Corticium sasakii (protective spray, rice plants cultivar Tai-Nong 67)
Assay type: in vivo
Settings: untreated control 90% infection
Description: The active compounds, separately or jointly, were prepared as a stock solution comprising 0.25% by weight of active compound in acetone or DMSO. 1% by weight of the emulsifier Uniperol® EL (wetting agent having emulsifying and dispersing action based on ethoxylated alkylphenols) was added to this solution, and the mixture was diluted with water accordingly to the desired concentration.
Use example—Activity against sheath blight on rice caused by Corticium sasakii
Pots of rice plants of the cultivar “Tai-Nong 67” were sprayed to runoff point with an aqueous suspension having the concentration of active compound stated below. The next day, oat grains infected with Corticium sasakii were planted in the pots (in each case 5 grains per pot). The plants were then placed in a chamber at 26° C. and maximum atmospheric humidity. After […], the sheath blight on the untreated but infected control plants had developed to such an extent that the infection could be determined visually in %.
Evaluation is carried out by determining the infected leaf areas in percent. These percentages were converted into efficacies.
The efficacy (E) is calculated as follows using Abbot's formula: E=(1−αβ)·100 • α corresponds to the fungal infection of the treated plants in % and • β corresponds to the fungal infection of the untreated (control) plants in %
An efficacy of 0 means that the infection level of the treated plants corresponds to that of the untreated control plants; an efficacy of 100 means that the treated plants are not infected.
The expected efficacies of the mixtures of active compounds are determined using Colby's formula [R. S. Colby, Weeds, 15, 20-22 (1967)] and are compared with the observed efficacies.
Colby's formula: E=x+y−x·y/100 • E expected efficacy, expressed in % of the untreated control, when using the mixture of the active compounds A and B at the concentrations a and b • x efficacy, expressed in % of the untreated control, when using the active compound A at the concentration a
y efficacy, expressed in % of the untreated control, when using the active compound B at the concentration b

[1] = 4 ppm active compound in the spray liquor
[2] = 16 ppm active compound in the spray liquor

Row | Structure (SMILES) | Efficacy in % of the untreated control [1] | Efficacy in % of the untreated control [2]
1 | CC1CCN(c2c(-c3c(F)cc(F)cc3F)c(Cl)nc3ncnn23)CC1 [compound I, 5-chloro-7-(4-methylpiperidin-1-yl)-6-(2,4,6-trifluorophenyl)-[1,2,4]tri-azolo[1,5-a]pyrimidine] | 31% | 65%
2 | CC(C)Oc1cccc(NC(=O)c2ccccc2C(F)(F)F)c1 [II (flutolanil), N-(3-isopropoxyphenyl)-2-trifluoromethylbenzamide] | 0% | 31%
